Values joined by “and” are separate entries in the source; they are usually repeats but may differ in a detail not shown here. Equal values may be shown once. Results filed as inconclusive are left out. Numbered stars: 1 amine (or outer) side, 2 acyl side, 3 side chain; on linkers, the order of the positions; unused ones are H or OH. Bridge positions count the residues as written; N and C are the ends. Square brackets hold non-standard residues; d marks the D form. Peptide text beside a SMILES is read from it. I, II: the chains in the order shown. Actinocin(9to1) = Cc1c2oc3c(C)ccc(C(=O)[*:1])c3nc-2c(C(=O)[*:2])c(N)c1=O; aThr = C[C@H](O)[C@H](N)C(=O)O; NMeV = CN[C@H](C(=O)O)C(C)C; Sar = CNCC(=O)O
Test system: nude mice, LX-1 lung xenograft intrarenal, tumor weight T/C
Assay: NCI In Vivo Anticancer Drug Screen. Data for tumor model Human Lung LX-1 Xenograft (intrarenal inoculation) in NU/NU Swiss (nude) mice
Conditions: endpoint: mean tumor weight change, higher = larger tumour
Summary of the method: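 Compound-treated mice carrying transplanted tumors were compared with vehicle-treated controls. Tumor size was the measured end point, and the value is the treated-group measurement divided by the control-group measurement (T/C).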

[1] = dose: 300.0 mg/kg/injection, schedule: Q04DX003 (sc), vehicle: Klucel (hydroxypropylcellulose) (HPC)
[2] = dose: 600.0 mg/kg/injection, schedule: Q04DX003 (sc), vehicle: Klucel (hydroxypropylcellulose) (HPC)
[3] = dose: 2400.0 mg/kg/injection, schedule: Q04DX003 (sc), vehicle: Klucel (hydroxypropylcellulose) (HPC)
[4] = dose: 300.0 mg/kg/injection, schedule: Q04DX003 (sc), vehicle: saline with Tween-80
[5] = dose: 1200.0 mg/kg/injection, schedule: Q04DX003 (sc), vehicle: saline with Tween-80
[6] = dose: 2400.0 mg/kg/injection, schedule: Q04DX003 (sc), vehicle: saline with Tween-80
[7] = dose: 50.0 mg/kg/injection, schedule: Q04DX003 (sc), vehicle: saline with Tween-80
[8] = dose: 200.0 mg/kg/injection, schedule: Q04DX003 (sc), vehicle: saline with Tween-80
[9] = dose: 400.0 mg/kg/injection, schedule: Q04DX003 (sc), vehicle: saline with Tween-80
[10] = dose: 12.5 mg/kg/injection, schedule: Q01DX010 (sc), vehicle: saline
[11] = dose: 25.0 mg/kg/injection, schedule: Q04DX003 (sc), vehicle: saline with Tween-80
[12] = dose: 100.0 mg/kg/injection, schedule: Q04DX003 (sc), vehicle: saline with Tween-80
[13] = dose: 800.0 mg/kg/injection, schedule: Q04DX003 (sc), vehicle: saline with Tween-80
[14] = dose: 1200.0 mg/kg/injection, schedule: Q04DX003 (sc), vehicle: Klucel (hydroxypropylcellulose) (HPC)
[15] = dose: 600.0 mg/kg/injection, schedule: Q04DX003 (sc), vehicle: saline with Tween-80
[16] = dose: 50.0 mg/kg/injection, schedule: Q01DX010 (sc), vehicle: saline with Tween-80
[17] = dose: 100.0 mg/kg/injection, schedule: Q01DX010 (sc), vehicle: saline with Tween-80

`Cc1c2oc3c(C)ccc(C(=O)N[C@@H]4C(=O)N[C@H](C(C)C)C(=O)N5CCC[C@H]5C(=O)N(C)CC(=O)N(C)[C@@H](C(C)C)C(=O)O[C@H]4C)c3nc-2c(C(=O)N[C@@H]2C(=O)N[C@H](C(C)C)C(=O)N3CCC[C@H]3C(=O)N(C)CC(=O)N(C)[C@@H](C(C)C)C(=O)O[C@H]2C)c(N)c1=O` (I: [aThr][dV]P[Sar][NMeV] / II: [aThr][dV]P[Sar][NMeV]; ester I:1-I:C, II:1-II:C; linker I:N-II:N via Actinocin(9to1)) was tested, and the T/C (dose: 100.0 micrograms/kg/injection, schedule: Q01DX010 (sc), vehicle: saline) was 13 % of control and 24 % of control and the T/C (dose: 200.0 micrograms/kg/injection, schedule: Q01DX010 (sc), vehicle: saline) was 13 % of control.

For `C[Si](C)(C)OSc1ccccc1[N+](=O)[O-]`, the T/C [1] was 150 % of control, the T/C [2] was 151 % of control and the T/C [3] was 123 % of control.

`Cn1c2nc(=O)n(-c3ccccc3)c(=O)c-2nc2c1CCCC2` was tested, and the T/C (dose: 75.0 mg/kg/injection, schedule: Q04DX003 (sc), vehicle: saline with Tween-80) was 71 % of control and the T/C (dose: 150.0 mg/kg/injection, schedule: Q04DX003 (sc), vehicle: saline with Tween-80) was 101 % of control.

In the case of `S=c1[nH]cc2cnccn12`, the T/C [4] is reported as 151 % of control, the T/C [5] is reported as 83 % of control and the T/C [6] is reported as 94 % of control.

`COC1=C(NC(C)=O)C(=O)c2nc(-c3nc(C(=O)O)c(C)c(-c4ccc(OC)c(OC)c4O)c3N)ccc2C1=O` was tested, and the T/C (dose: 25.0 mg/kg/injection, schedule: Q04DX003 (sc), vehicle: Klucel (hydroxypropylcellulose) (HPC)) was 63 % of control, the T/C (dose: 50.0 mg/kg/injection, schedule: Q04DX003 (sc), vehicle: Klucel (hydroxypropylcellulose) (HPC)) was 55 % of control and the T/C (dose: 100.0 mg/kg/injection, schedule: Q04DX003 (sc), vehicle: Klucel (hydroxypropylcellulose) (HPC)) was 40 % of control.

In the case of `O=c1[nH]c(=O)n(C2OC(CO)C(O)C2O)cc1F` (stereo not given), the T/C (dose: 9.37 mg/kg/injection, schedule: Q04DX003 (sc), vehicle: saline) is reported as 77 % of control and the T/C (dose: 18.75 mg/kg/injection, schedule: Q04DX003 (sc), vehicle: saline) is reported as 26 % of control.

`CC(C)=CCNc1ncnc2c1ncn2C1OC(CO)C(O)C1O` (stereo not given) was tested, and the T/C (dose: 200.0 mg/kg/injection, schedule: Q04DX003 (sc), vehicle: suspension in saline) was 93 % of control, the T/C (dose: 400.0 mg/kg/injection, schedule: Q04DX003 (sc), vehicle: suspension in saline) was 112 % of control and the T/C (dose: 800.0 mg/kg/injection, schedule: Q04DX003 (sc), vehicle: suspension in saline) was 88 % of control.

`ClC1=C(Cl)C(Cl)=C(Cl)C1=Cc1ccccc1` was tested, and the T/C [7] was 96 % of control, the T/C [8] was 91 % of control and the T/C [9] was 105 % of control.

With `O=c1n(CC2CO2)c(=O)n(CC2CO2)c(=O)n1CC1CO1` (stereo not given) the T/C [10] was 65 % of control, the T/C (dose: 25.0 mg/kg/injection, schedule: Q01DX010 (sc), vehicle: saline) was 56 % of control and the T/C [11] was 94 % of control. The T/C [7] was 100 % of control.

`CC1(C)COCN1COC1CCCCC1` was tested, and the T/C [12] was 76 % of control, the T/C [8] was 119 % of control and the T/C [9] was 68 % of control. For the same compound, the T/C [13] was 110 % of control.

In the case of `CC1=NNC(=O)C1CCO` (stereo not given), the T/C [1] is reported as 112 % of control, the T/C [2] is reported as 115 % of control and the T/C [14] is reported as 82 % of control. The T/C [3] was 106 % of control.

With `[O-][n+]1c(CN2CCCCC2)nc2cccc3c2c1-c1ccccc1-3` the T/C [4] was 82 % of control, the T/C [15] was 68 % of control and the T/C [5] was 77 % of control. For the same compound, the T/C [6] was 109 % of control.

In the case of `O=C1NC(=O)C2C3C=CC(C12)C1C2C(=O)NC(=O)C2C31` (stereo not given), the T/C [12] is reported as 123 % of control, the T/C [9] is reported as 84 % of control and the T/C [13] is reported as 75 % of control. For the same compound, the T/C (dose: 1600.0 mg/kg/injection, schedule: Q04DX003 (sc), vehicle: saline with Tween-80) was 105 % of control.

`CCc1ccc(C2=C(O)C(=O)C(c3ccc(CC)cc3)=C(O)C2=O)cc1` was tested, and the T/C [12] was 83 % of control, the T/C [8] was 100 % of control and the T/C [9] was 64 % of control. The T/C [13] was 56 % of control.

For `O=C1c2cccc3cc([N+](=O)[O-])cc(c23)C(=O)N1CCN1CCCC1`, the T/C (dose: 9.0 mg/kg/injection, schedule: Q04DX003 (sc), vehicle: saline with Tween-80) was 104 % of control, the T/C (dose: 18.0 mg/kg/injection, schedule: Q04DX003 (sc), vehicle: saline with Tween-80) was 75 % of control and the T/C (dose: 36.0 mg/kg/injection, schedule: Q04DX003 (sc), vehicle: saline with Tween-80) was 74 % of control. The T/C (dose: 72.0 mg/kg/injection, schedule: Q04DX003 (sc), vehicle: saline with Tween-80) was 76 % of control.

`O=S(=O)(O)O` was tested, and the T/C (dose: 150.0 mg/kg/injection, schedule: Q04DX003 (sc), vehicle: Klucel (hydroxypropylcellulose) (HPC)) was 70 % of control, the T/C [1] was 167 % of control and the T/C [2] was 73 % of control.

`CC12CC(C(=O)O)C3(O)CC(C)(C1)CC(C)(C2)C3` (stereo not given) (tested in a mixture with another compound) was tested, and the T/C [1] was 86 % of control, the T/C [2] was 57 % of control and the T/C [14] was 105 % of control. The T/C [3] was 105 % of control.

For `CCCCNC(C)[C@]1(O)Cc2c(O)c3c(c(O)c2[C@@H](OC2CC(N)C(O)C(C)O2)C1)C(=O)c1c(OC)cccc1C3=O` (stereo not given in full), the T/C (dose: 6.25 mg/kg/injection, schedule: Q01DX010 (sc), vehicle: saline) was 69 % of control and the T/C [10] was 68 % of control.

With `C[CH2][Sn]([CH2]C)([O]S(C)(=O)=O)[O]S(C)(=O)=O` the T/C (dose: 3.13 mg/kg/injection, schedule: Q04DX003 (sc), vehicle: saline with Tween-80) was 107 % of control, the T/C (dose: 6.25 mg/kg/injection, schedule: Q04DX003 (sc), vehicle: saline with Tween-80) was 109 % of control and the T/C (dose: 12.5 mg/kg/injection, schedule: Q04DX003 (sc), vehicle: saline with Tween-80) was 102 % of control. The T/C [11] was 99 % of control.

`Cc1cc(SCC(=O)c2ccc(Br)cc2)cc(C)[o+]1` was tested, and the T/C (dose: 50.0 mg/kg/injection, schedule: Q01DX010 (sc), vehicle: saline) was 111 % of control and the T/C (dose: 200.0 mg/kg/injection, schedule: Q01DX010 (sc), vehicle: saline) was 116 % of control.

For `O=CC=O`, the T/C [16] was 82 % of control and the T/C [17] was 61 % of control.

With `COc1ccc2c(NCCCCCCCCNc3c4ccccc4nc4cc(OC)ccc34)c3ccccc3nc2c1` the T/C (dose: 2.0 mg/kg/injection, schedule: Q04DX003 (sc), vehicle: suspension in saline) was 96 % of control and the T/C (dose: 16.0 mg/kg/injection, schedule: Q04DX003 (sc), vehicle: suspension in saline) was 64 % of control.

With `CC1OC(OC2CC(O)(C(=O)CO)Cc3c(O)c4c(c(O)c32)C(=O)c2ccccc2C4=O)CC(N)C1O` (stereo not given) the T/C (dose: 0.5 mg/kg/injection, schedule: Q01DX010 (sc), vehicle: water) was 57 % of control and the T/C (dose: 1.0 mg/kg/injection, schedule: Q01DX010 (sc), vehicle: water) was 83 % of control.

In the case of `COC1CC(C)C(OC)C2=CC(=O)C=C(NC(=O)/C(C)=C/C=C\C(C)C(OC(N)=O)/C(C)=C\C(C)C1OC)C2=O` (stereo not given), the T/C (dose: 12.5 mg/kg/injection, schedule: Q04DX003 (sc), vehicle: saline + alcohol) is reported as 35 % of control, the T/C (dose: 25.0 mg/kg/injection, schedule: Q04DX003 (sc), vehicle: saline + alcohol) is reported as 87 % of control and the T/C (dose: 50.0 mg/kg/injection, schedule: Q04DX003 (sc), vehicle: saline + alcohol) is reported as 73 % of control.

In the case of `CCOC(=O)c1[nH]c2cccc3c2c1CC(Br)C3=O` (stereo not given), the T/C [4] is reported as 87 % of control, the T/C [15] is reported as 88 % of control and the T/C [5] is reported as 84 % of control. The T/C [6] was 67 % of control.

With `C1OC1CO[C@@H]1CO[C@H]2[C@@H]1OC[C@H]2OCC1CO1` (stereo not given in full) the T/C [16] was 95 % of control, the T/C [17] was 80 % of control and the T/C (dose: 200.0 mg/kg/injection, schedule: Q01DX010 (sc), vehicle: saline with Tween-80) was 65 % of control.

From PubChem BioAssay AID264 (DTP/NCI, 2004)
